Format in all cases: cell-based
Assay [1] has as its system Salmonella choleraesuis. The assay can be described thus: minimum inhibitory concentration (MIC), agar dilution. The following applies: Salmonella enterica, ATCC 10708 / CHOLERAESUIS, nutrient agar pH 6.8, read-out: MIC. The method, then:
(§1) The minimum inhibitory concentration (MIC) for the compound of Example 19, i.e., (2-nitrophenyl)-iodonium 2,2-dimethyl-4,6-dioxo-1,3-dioxan-5-ylide was determined for 9 bacteria (using nutrient agar) and 5 yeast and fungi (using malt yeast agar). A one percent solution of this test compound (i.e., the compound of Example 19) was prepared in a mixture of acetone-water. Nutrient agar was prepared at pH 6.8 using deionized water according to standard Difco procedures. Malt yeast agar was prepared by adding 3 g Bacto yeast extract and 42 g Bacto Malt agar per liter of deionized water. The agar (nutrient agar when testing with bacteria and malt yeast agar when testing with yeast and fungi) was dispensed in 30 mL aliquots into 25×200 millimeter (mm) test tubes, capped and autoclaved for 15 min at 115° C. The test tubes containing the agar were cooled in a water bath until the temperature of the agar was 48° C. and then an appropriate amount of the one percent solution of the test compound was added (except in the controls where no test compound was added with the acetone-water) to the respective test tubes so that final concentrations of 500, 250, 100, 50, 25, 10, 5, 2.5, 1.0 and 0 parts per million (ppm) of the test compound in the agar were obtained. The agar solutions were each mixed and poured into individual petri plates so that each petri plate contained agar having a known concentration of test compound dispersed therein. After drying for 24 hr, the petri plates were inoculated with bacteria when the petri plates contained nutrient broth agar or with fungi and yeast when the petri plates contained malt yeast agar.
(§2) The inoculation with bacteria was accomplished using the following procedure. Twenty-four hr cultures of each of the bacteria were prepared by incubating the respective bacteria in tubes containing nutrient broth for 24 hr at 30° C. in a shaker. Dilutions of each of the 24 hr cultures were made so that 9 separate suspensions (one for each of the 9 test bacteria) were made, each containing about 10^8 colony forming units (CFU) per mL of suspension of a particular bacteria. Aliquots of 0.3 mL of each of the above suspensions were used to fill individual wells of a Steer's Replicator. For each microbial suspension, 0.3 mL was used to fill 3 wells (i.e., 3 wells of 0.3 mL each) so that for the 9 different bacteria 27 wells were filled. The Steer's Replicator was then used to inoculate the petri plates.
(§3) The petri plates were incubated at 30° C. for 48 hr and then read to determine if the test compound (i.e., the compound of Example 19) which was incorporated into the agar prevented growth of the respective bacteria. The minimum inhibitory concentration (MIC) for each bacteria was defined as the lowest concentration of the test compound which prevented growth of that bacteria.
(§4) In a similar procedure, the MIC (in ppm) of the compound of Example 11 (i.e., (2-nitrophenyl)-iodonium 2,6-dioxocyclohexylide) for various organisms was determined at an acid pH (about 6.8) and at an alkaline pH (about 8.2).

For assay [2], the system named is Selenastrum capricornutum. The assay can be described thus: algaecide test, inhibition of growth. The following applies: 96 hr incubation, read-out: growth of the algae, Percent of Control. The protocol:
Using a Coulter Counter, the growth of this algea was measured after 96 hr incubation with various levels of biocide, i.e., (2-nitrophenyl)-iodonium 2,2-dimethyl-4,6-dioxo-1,3-dioxan-5-ylide.

In assay [3] the test system is Enterobacter aerogenes. The assay can be described thus: minimum inhibitory concentration (MIC), agar dilution. The settings on record: Klebsiella aerogenes, ATCC13048; ATCC 13048; nutrient agar pH 6.8; read-out: MIC. The method, then: as §1, §2, §3, §4
(§5) Using similar procedures, the MIC's (in ppm) of various compounds of Formula I and/or Formula II were determined for the organisms Enterobacter aerogenes and Bacillus subtilis in a neutral solution (pH about 6.8) and in an alkaline medium (pH about 8.2).

For assay [4], the system named is Bacillus subtilis. The description is as above. The settings on record: Bacillus subtilis, ATCC8473; ATCC 8473; nutrient agar pH 6.8; read-out: MIC. The method, then: as §1, §2, §3, §4, §5

≈ marks a conversion by molar mass, not a printed value. Some results are limits rather than exact numbers.

As usually defined, the MIC is the least concentration at which growth counts as inhibited.

For the compound `CC1(C)OC(=O)[C-]([I+]c2ccccc2[N+](=O)[O-])C(=O)O1` [Example 19, (2-Nitrophenyl)-iodonium 2,2-dimethyl-4,6-dioxo-1,3-dioxan-5-ylide], the minimal inhibitory concentration (MIC) in assay [1] was ≤ 1 µg/mL; in assay [3], 1 µg/mL (≈ 2.56 µM); in assay [4], ≤ 1 µg/mL. Further, the activity at 0.01 ppm in assay [2] (0.01 ppm) stood at 77%. Besides, in assay [2] (0.1 ppm), the activity at 0.1 ppm amounted to 2.4%. Also, the activity at 1 ppm in assay [2] (1.0 ppm) was 0.65%. The activity at 10 ppm in assay [2] (10 ppm) is 0.59%. Besides, the activity at 32 ppm in assay [2] (32 ppm) was 0.53%.

Source of the values: patent publication US5106407A, “Iodones and methods for antimicrobial use” (priority 1989, dated 1992).
